Measured values taken from patent publication US6686350B1, “Cell adhesion inhibitors” (Biogen, Inc., priority 1996, dated 2004).

Target: IIb/IIIa (Homo sapiens, UniProt P05106+P08514)
Assay: IIb/IIIa inhibitory activity (receptor-ligand binding or platelet aggregation)
Details: qualitative statement
Excerpt: In a basic embodiment, therefore, one skilled in the art first identifies a compound having IIb/IIIa inhibitory activity. Compounds having IIb/IIIa inhibitory activity are well known to those skilled in the art, and are readily available, see, e.g., Table 2 and the references incorporated herein in the Background of the Invention. For purposes of this invention, one skilled in the art may use any of these known compounds. Alternatively, one may determine in assays known to those skilled in the art whether a particular compound has IIB/IIIa activity. If the assay is positive, then the scaffold will be useful in the present invention. Assays for IIb/IIIa inhibitory activity are well known in the art. […] (WO 093/00095, specifically incorporated herein by reference.) Additionally, the aforementioned binding to ligands can be assessed by one skilled in the art in a platelet aggregation assay.

IIb/IIIa, sequence (P08514 32-887 limits assumed): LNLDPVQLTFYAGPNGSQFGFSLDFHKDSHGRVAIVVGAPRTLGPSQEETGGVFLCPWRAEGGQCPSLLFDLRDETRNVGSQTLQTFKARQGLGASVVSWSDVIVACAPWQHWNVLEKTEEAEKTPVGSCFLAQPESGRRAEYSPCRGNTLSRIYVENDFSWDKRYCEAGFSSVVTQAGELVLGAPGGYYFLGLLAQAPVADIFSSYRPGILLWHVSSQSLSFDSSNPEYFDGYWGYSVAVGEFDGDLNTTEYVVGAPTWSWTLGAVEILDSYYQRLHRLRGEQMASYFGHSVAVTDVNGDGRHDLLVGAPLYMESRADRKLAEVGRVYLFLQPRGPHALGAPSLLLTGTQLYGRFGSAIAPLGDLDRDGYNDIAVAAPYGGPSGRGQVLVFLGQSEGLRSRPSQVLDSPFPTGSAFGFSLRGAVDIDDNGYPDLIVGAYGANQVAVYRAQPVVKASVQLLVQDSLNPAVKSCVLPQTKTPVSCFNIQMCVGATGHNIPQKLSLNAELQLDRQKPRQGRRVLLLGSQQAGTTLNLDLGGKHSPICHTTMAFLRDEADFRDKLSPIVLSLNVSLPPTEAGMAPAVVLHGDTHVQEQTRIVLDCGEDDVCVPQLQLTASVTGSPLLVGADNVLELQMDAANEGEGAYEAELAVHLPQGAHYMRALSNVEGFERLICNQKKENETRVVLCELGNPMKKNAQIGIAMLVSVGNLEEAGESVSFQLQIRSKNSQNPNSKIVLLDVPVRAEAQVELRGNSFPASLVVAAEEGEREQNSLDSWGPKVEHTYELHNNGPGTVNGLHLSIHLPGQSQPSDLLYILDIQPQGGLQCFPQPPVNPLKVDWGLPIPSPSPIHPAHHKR
IIb/IIIa, sequence (P08514 891-1039 limits assumed): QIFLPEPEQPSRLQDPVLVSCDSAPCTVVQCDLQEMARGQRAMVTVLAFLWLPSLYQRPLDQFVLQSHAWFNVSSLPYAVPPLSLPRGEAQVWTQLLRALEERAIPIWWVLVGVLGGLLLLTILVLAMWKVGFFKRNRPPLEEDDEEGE
IIb/IIIa, sequence (P05106 27-788): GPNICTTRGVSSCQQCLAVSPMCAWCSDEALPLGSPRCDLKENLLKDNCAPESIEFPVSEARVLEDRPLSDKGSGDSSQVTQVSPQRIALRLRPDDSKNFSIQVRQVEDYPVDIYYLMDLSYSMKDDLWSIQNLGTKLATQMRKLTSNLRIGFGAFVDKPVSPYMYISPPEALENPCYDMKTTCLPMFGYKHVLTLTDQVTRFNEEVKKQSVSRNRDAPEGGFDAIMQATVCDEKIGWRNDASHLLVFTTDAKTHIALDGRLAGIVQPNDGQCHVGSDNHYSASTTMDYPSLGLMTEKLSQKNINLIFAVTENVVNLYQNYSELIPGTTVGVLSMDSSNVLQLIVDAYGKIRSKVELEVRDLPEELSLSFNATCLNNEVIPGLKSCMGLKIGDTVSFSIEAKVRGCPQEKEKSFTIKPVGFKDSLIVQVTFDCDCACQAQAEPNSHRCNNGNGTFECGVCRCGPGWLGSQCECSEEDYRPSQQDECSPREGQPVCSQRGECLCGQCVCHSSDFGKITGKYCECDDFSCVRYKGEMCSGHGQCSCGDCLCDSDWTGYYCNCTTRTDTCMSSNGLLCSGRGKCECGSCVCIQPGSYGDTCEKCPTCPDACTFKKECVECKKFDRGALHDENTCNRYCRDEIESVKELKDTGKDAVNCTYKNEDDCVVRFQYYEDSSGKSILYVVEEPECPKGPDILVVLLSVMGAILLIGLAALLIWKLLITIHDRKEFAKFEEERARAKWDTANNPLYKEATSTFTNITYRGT

For `CN(CC(=O)N1CCC(C2CCNCC2)CC1)C(=O)CN(CCC(=O)O)C(=O)c1ccccc1` [Compound B], the IIb/IIIa inhibitory activity was “potent IIB/IIIa inhibitor”.

System: not given
Assay: not given
Details: not given

Compound `COCCC(=O)N(CCC(=O)O)CC(=O)N(CCC(C)C)CC(=O)Nc1ccc(NC(=O)Nc2ccccc2C)cc1` [AY44] has a melting point of 164 to 166 °C.

Target: T1, VLA-4 (Homo sapiens, UniProt P05556+P13612)
T1 construct: endogenous in cells; host or cells: Jurkat cells
Assay: VLA-4 direct binding assay (VCAM-IgG alkaline phosphatase conjugate binding to Jurkat cells)
Details: Table 1, Structure-Activity; assay and unit inferred; read-out: Act
Excerpt: A direct binding assay may also be employed to quantitate the inhibitory activity of the compounds of this invention. (“DBA”) In direct binding assays, for example, a VCAM-IgG fusion protein containing the first two immunoglobulin domains of VCAM (D1D2) attached above the hinge region of an IgG1 molecule (“VCAM 2D-IgG”), is conjugated to a marker enzyme, such as alkaline phosphatase (“AP”). The synthesis of this VCAM-IgG fusion is described in PCT publication WO 90/13300, the disclosure of which is herein incorporated by reference. The conjugation of that fusion to a marker enzyme can be achieved by cross-linking methods well-known in the art.
The VCAM-IgG enzyme conjugate is then placed in the wells of a multi-well filtration plate, such as that contained in the Millipore Multiscreen Assay System (Millipore Corp., Bedford, Mass.). Varying concentrations of the test inhibitory compound are then added to the wells followed by addition of VLA-4-expressing cells. The cells, compound and VCAM-IgG enzyme conjugate are mixed together and allowed to incubate at room temperature.
Following incubation, the wells are vacuum drained, leaving behind the cells and any bound VCAM. Quantitation of bound VCAM is determined by adding an appropriate calorimetric substrate for the enzyme conjugated to VCAM-IgG and determining the amount of reaction product. Decreased reaction product indicates increased binding inhibitory activity. The protocol is described more specifically below:
1. Block a 96 well Millipore Multiscreen Assay System filtration plate^1 with 200:l/well of blocking buffer (1×Phosphate Buffered Saline, 0.1%Tween 20, 1%BSA) for at least 1 hour at room temperature.
2. Drain the plate with the vacuum manifold, and wash with 200 μl/well of assay buffer (Tris Buffered Saline, 0.1% BSA, 2 mM glucose, 10 mM HEPES, pH 7.5) draining the plate in between. Repeat twice. Then blot the plate bottom on paper to remove excess buffer.
3. Prepare a 4 μg/ml VCAMIg-AP solution (Alkaline phosphatase coupled to VCAMIg) in assay buffer and filter with a 0.2:low protein binding syringe filter (Gelman Sciences #4454). From this stock, prepare a 0.4 μg/ml working solution of VCAMIg-AP in assay buffer. Add 25:l of 0.4 μg/ml VCAMIg-AP to every well.
5. Prepare dilutions of compounds to be tested in assay buffer. Concentrations should be 4× the desired final concentration and run in triplicate. Add 25 μl of the compound dilutions to designated wells.
7. Jurkat cells are centrifuged to remove cell culture media and washed once in assay buffer. Resuspend the washed Jurkat cells to a concentration of 8×10^6/ml in assay buffer containing 2 mM MnCl2. Pipeting the mixture up and down to ensure a uniform cell suspension. Add 50:l of cell suspension to each well except the NSB wells.
8. Gently tap the sides of the plate to mix well contents. Incubate the plate for 60 minutes at room temperature (RT).
9. Place the plate on the vacuum manifold to drain the well contents. Wash twice with 100 μl/well of wash buffer (assay buffer containing 1 mM MnCl2). Drain the plate and blot on paper towels.
10. Add 10 mg/ml of 4-Nitro phenyl phosphate to Substrate buffer (0.1M glycine, 1 mM ZnCl2, 1 mM MgCl2, pH 10.5). Add 100 μl/well and incubate for exactly 30 minutes at RT.
11. To stop the reaction, add 100 μl/well of 3N NaOH.
12. Read the 96-well plate in a Molecular Devices ELISA platereader at 405 nm. Analyze data with SoftMax software.

T1 sequence (P13612 34-1032): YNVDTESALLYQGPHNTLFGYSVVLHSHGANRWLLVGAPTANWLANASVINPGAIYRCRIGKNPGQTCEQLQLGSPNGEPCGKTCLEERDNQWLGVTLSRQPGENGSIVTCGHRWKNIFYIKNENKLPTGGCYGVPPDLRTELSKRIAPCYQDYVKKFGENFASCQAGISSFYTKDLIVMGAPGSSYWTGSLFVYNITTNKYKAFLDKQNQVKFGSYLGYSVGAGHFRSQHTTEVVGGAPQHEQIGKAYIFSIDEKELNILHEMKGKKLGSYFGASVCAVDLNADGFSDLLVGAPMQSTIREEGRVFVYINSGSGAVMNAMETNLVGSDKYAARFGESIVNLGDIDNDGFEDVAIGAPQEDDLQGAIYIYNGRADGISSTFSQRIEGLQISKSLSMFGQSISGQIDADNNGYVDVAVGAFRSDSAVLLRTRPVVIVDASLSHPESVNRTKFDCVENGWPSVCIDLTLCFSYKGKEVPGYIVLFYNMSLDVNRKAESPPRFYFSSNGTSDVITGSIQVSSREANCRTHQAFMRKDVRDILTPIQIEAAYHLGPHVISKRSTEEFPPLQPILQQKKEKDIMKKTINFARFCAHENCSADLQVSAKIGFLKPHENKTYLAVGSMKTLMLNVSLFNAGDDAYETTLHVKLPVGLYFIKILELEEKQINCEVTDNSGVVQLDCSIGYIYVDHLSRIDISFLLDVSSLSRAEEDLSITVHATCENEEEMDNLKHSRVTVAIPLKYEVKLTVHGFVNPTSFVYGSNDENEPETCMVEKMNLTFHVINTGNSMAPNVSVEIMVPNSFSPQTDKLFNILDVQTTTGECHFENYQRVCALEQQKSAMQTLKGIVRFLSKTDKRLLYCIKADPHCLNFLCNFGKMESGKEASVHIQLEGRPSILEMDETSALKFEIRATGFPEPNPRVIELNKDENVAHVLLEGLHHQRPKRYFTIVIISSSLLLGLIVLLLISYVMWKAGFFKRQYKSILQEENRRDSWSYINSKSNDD
T1 sequence (P05556 21-798): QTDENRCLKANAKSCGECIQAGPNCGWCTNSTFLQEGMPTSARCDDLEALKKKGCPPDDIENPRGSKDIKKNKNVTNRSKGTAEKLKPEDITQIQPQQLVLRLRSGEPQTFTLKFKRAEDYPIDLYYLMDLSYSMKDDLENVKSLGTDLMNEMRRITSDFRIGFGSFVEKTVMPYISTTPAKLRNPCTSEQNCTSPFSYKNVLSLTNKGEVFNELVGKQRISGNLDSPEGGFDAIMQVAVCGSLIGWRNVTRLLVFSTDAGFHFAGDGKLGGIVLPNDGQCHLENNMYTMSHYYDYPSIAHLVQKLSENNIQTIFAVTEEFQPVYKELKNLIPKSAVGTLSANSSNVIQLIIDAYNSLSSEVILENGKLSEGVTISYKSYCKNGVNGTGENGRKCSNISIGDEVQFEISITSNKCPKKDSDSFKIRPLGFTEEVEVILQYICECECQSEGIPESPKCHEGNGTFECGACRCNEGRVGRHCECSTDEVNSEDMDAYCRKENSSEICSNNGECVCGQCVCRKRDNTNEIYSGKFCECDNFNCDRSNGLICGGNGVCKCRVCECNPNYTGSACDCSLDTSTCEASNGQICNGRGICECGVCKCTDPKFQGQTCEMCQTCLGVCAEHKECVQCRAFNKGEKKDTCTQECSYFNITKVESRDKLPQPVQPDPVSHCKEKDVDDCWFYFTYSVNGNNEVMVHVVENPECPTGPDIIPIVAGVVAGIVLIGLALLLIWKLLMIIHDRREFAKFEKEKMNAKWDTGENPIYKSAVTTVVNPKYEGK

Going from `Cc1ccccc1NC(=O)Nc1ccc(NC(=O)C2CC2C(=O)N[C@@H](CC(=O)O)c2ccc3c(c2)OCO3)cc1` (stereo partly drawn) [SX25] to `Cc1ccccc1NC(=O)Nc1ccc(NC(=O)C[C@@H](CC(C)C)C(=O)NC(CC(=O)O)c2ccc3c(c2)OCO3)cc1` (stereo partly drawn) [SX56], the IC50 falls from 810 nM to 55 nM (15-fold).

Going from `Cc1ccccc1NC(=O)Nc1ccc(N2CC[C@@H](CC(=O)N[C@H](C)CC(=O)O)C2=O)cc1` [SX26] to `Cc1ccccc1NC(=O)Nc1ccc(NC(=O)CCC(=O)N[C@H](C)CC(=O)O)cc1` [SX35], the IC50 falls from 769 nM to 468 nM (1.6-fold).

`COc1ccc(C(CC(=O)O)NC(=O)C(CC(=O)NCc2ccccc2)CC(C)C)cc1` (stereo not drawn) [SX28] and `COc1ccc([C@H](CC(=O)O)NC(=O)C(CC(=O)Nc2ccc(COCc3ccccc3)cc2)CC(C)C)cc1OC` (stereo partly drawn) [SX29] are within 1.5-fold of each other in IC50: 717 nM for the first, 700 nM for the second.

First: COc1ccc(C(CC(=O)O)NC(=O)[C@@H](CC(=O)Nc2ccc(COc3ccccc3C)cc2)CC(C)C)cc1OC (stereo partly drawn) [SX31]
Second: COc1ccc([C@H](CC(=O)O)NC(=O)C(CC(=O)Nc2ccc(CCc3ccccc3C)cc2)CC(C)C)cc1OC (stereo partly drawn) [SX39]
The IC50 of the first is 1.7-fold higher: 680 nM for the first, 397 nM for the second. The second is the more potent here.

Compared with `COc1ccc(C(CC(=O)O)NC(=O)C(CC(=O)Nc2ccc(CCSc3ccccc3C)cc2)CC(C)C)cc1OC` (stereo not drawn) [SX32], `COc1ccc([C@H](CC(=O)O)NC(=O)C(CC(=O)Nc2ccc(/C=C/c3ccccc3C)cc2)CC(C)C)cc1OC` (stereo partly drawn) [SX40] is 2-fold lower in IC50: 660 nM for the first, 335 nM for the second.

Going from `Cc1ccccc1NC(=O)Nc1ccc(CNC(=O)C(CC(=O)NC(CC(=O)O)c2ccc3c(c2)OCO3)CC(C)C)cc1` (stereo not drawn) [SX34] to `COc1ccc(C(CC(=O)O)NC(=O)[C@@H](CC(=O)Nc2ccc(NC(=O)Nc3ccccc3C)cc2)CC(C)C)cc1OC` (stereo partly drawn) [SX44], the IC50 falls from 500 nM to 233 nM (2.1-fold).

Compared with `COc1ccc([C@H](CC(=O)O)NC(=O)C(O)CC(=O)Nc2ccc(NC(=O)Nc3ccccc3C)cc2)cc1OC` (stereo partly drawn) [SX38], `COc1ccc(C(CC(=O)O)NC(=O)CCC(=O)Nc2ccc(NC(=O)Nc3ccccc3C)cc2)cc1OC` (stereo not drawn) [SX51] is 2.8-fold lower in IC50: 404 nM for the first, 142 nM for the second. The second is the more potent here.

Compared with `COc1ccc([C@H](CC(=O)O)NC(=O)C(CC(=O)Nc2ccc(NC(=O)Nc3ccccc3)cc2)CC(C)C)cc1OC` (stereo partly drawn) [SX41], `COc1ccc([C@H](CC(=O)O)NC(=O)C(C)CC(=O)Nc2ccc(NC(=O)Nc3ccccc3)cc2)cc1OC` (stereo partly drawn) [SX53] is 4.8-fold lower in IC50: 310 nM for the first, 65 nM for the second. The second is the more potent here.

`COc1ccc([C@H](CC(=O)O)NC(=O)C(CC(=O)Nc2ccc(NC(=O)NS(=O)(=O)c3ccccc3C)cc2)CC(C)C)cc1OC` (stereo partly drawn) [SX42] and `COc1ccc([C@H](CC(=O)O)NC(=O)C(CC(=O)Nc2ccc(NC(=O)Nc3ncccc3C)cc2)CC(C)C)cc1OC` (stereo partly drawn) [SX46] are within 1.5-fold of each other in IC50: 298 nM for the first, 200 nM for the second.

First: CC(CC(=O)Nc1ccc(NC(=O)Nc2ccccc2)cc1)C(=O)N[C@H](C)CC(=O)O (stereo partly drawn) [SX43]
Second: C=CC[C@H](CC(=O)O)NC(=O)C(C)CC(=O)Nc1ccc(NC(=O)Nc2ccccc2C)cc1 (stereo partly drawn) [SX54]
The IC50 of the first is 4.2-fold higher: 247 nM for the first, 58.5 nM for the second.

`COc1ccc([C@H](CC(=O)O)NC(=O)CCC(=O)Nc2ccc(NC(=O)Nc3ccccc3)c(O)c2)cc1OC` [SX45] and `COc1ccc(C(CC(=O)O)NC(=O)C(CC(=O)Nc2ccc(NC(=O)Nc3ccccc3C)cc2)NS(C)(=O)=O)cc1OC` (stereo not drawn) [SX47] are within 1.5-fold of each other in IC50: 216 nM for the first, 196 nM for the second.

`Cc1ccccc1NC(=O)Nc1ccc(N(C)C(=O)CCC(=O)N[C@H](C)CC(=O)O)cc1` [SX48] and `Cc1ccccc1NC(=O)Nc1ccc(NC(=O)CC(CC(C)C)C(=O)NC(C)CC(=O)O)cc1` (stereo not drawn) [SX50] are within 1.5-fold of each other in IC50: 195 nM for the first, 167 nM for the second.

`Cc1ccccc1NC(=O)Nc1ccc(CC(=O)Nc2ccccc2OCCC(=O)O)cc1` [UX1] showed an IC50 of 4500 nM.
